Reference: US9701681B2, “Fused ring heteroaryl compounds and their use as Trk inhibitors” (CMG Pharmaceutical Co., Ltd., priority 2014, dated 2017)

system: KM12-luc cells; assay: Cell proliferation assay (KM12); conditions: 72 hours exposure, read-out: IC50 (nM) Cell-based assay (KM12)
Protocol: Doxorubicin was purchased from Sigma Aldrich (D1515). All compounds were diluted in DMSO (Sigma Aldrich, D2650). AlamarBlue® cell viability reagent was purchased from Thermo Scientific (88952). CellTiter 96® AQueous One Solution Cell proliferation assay was purchased from Promega. KM12-luc cells were obtained from JCRB (National Institute of Health Sciences, Tokyo, Japan). They were maintained in DMEM medium (GIB-11965-118) supplemented with 10% fetal bovine serum (Gibco, 16000-044) and MEM Non-Essential Amino Acids Solution (Thermo Scientific, 11140-050). TF-1 cells were obtained from ATCC. They were maintained in RPMI medium (GIB-A10491) supplemented with 10% fetal bovine serum (Gibco, 16000-044), GM-CSF (Thermo Scientific, 11140-050), and β-NGF (R&D systems). Trypsin/EDTA was purchased from Gibco (GIB-25300-054, 0.05%). 96-well plates were purchased from Corning Inc.
The proliferation assay was performed for Chemical Compounds 1-61 s in media supplemented with 10% FBS, using AlamarBlue® cell viability reagent or CellTiter 96® AQueous One Solution Cell proliferation assay kit. Cells were cultured in humidified 37° C. incubator with 5% CO2. To evaluate the antiproliferation activity of compounds, TF-1 cells were adjusted to GM-CSF free media (RPMI, 10% FBS, and 1% penicillin-streptomycin) for 16 hr and were seeded in 96-well plates at 30,000 cells/well with medium (RPMI, 10% FBS, 1% penicillin-streptomycin and 10 ng/ml human β-NGF). KM12-luc were seeded at 10,000 cells per well into 96-well plates. After overnight incubation, serial dilutions of compounds were added to triplicate wells, and cells were exposed for 72 hours. The final concentration of DMSO was adjusted to 0.5% in media. Quantitation of cell growth was assessed using two kinds of reagent. 20 ul of AlamarBlue® reagent in an amount equal to 10% of the culture volume was added to each well and were incubated in humidified 37° C. incubator with 5% CO2 for 2 hr. Otherwise, 20 ul of CellTiter 96® reagent was added to each well and were incubated in the same conditions as previously described. Data were plotted, and GI50 values were calculated using GraphPad software. Table 1 below includes the results of the assays.

| Compound | IC50 [nM] |
| --- | --- |
| CC(C)N1CCN(C(=O)/C=C/c2cnn3ccc(N4CCC[C@@H]4c4cc(F)ccc4F)nc23)CC1 [Chemical Compound 55, (R,E)-3-(5-(2-(2,5-difluorophenyl)pyrrolidin-1-yl)pyrazolo[1,5-a]pyrimidin-3-yl)-1-(4-isopropylpiperazin-1-yl)prop-2-en-1-one] | < 100 |
| CC1(O)CCN(C(=O)/C=C/c2cnn3ccc(N4CCC[C@@H]4c4cc(F)ccc4F)nc23)CC1 [Chemical Compound 58, (R,E)-3-(5-(2-(2,5-difluorophenyl)pyrrolidin-1-yl)pyrazolo[1,5-a]pyrimidin-3-yl)-1-(4-hydroxy-4-methylpiperidin-1-yl)prop-2-en-1-one] | < 10 |
| (E)-3-(5-((R)-2-(2,5-difluorophenyl)pyrrolidin-1-yl)pyrazolo[1,5-a]pyrimidin-3-yl)-1-((R)-3-hydroxypyrrolidin-1-yl)prop-2-en-1-one [Chemical Compound 59] | < 100 |

target: T1, TRK A, B & C kinase; assay: TRK A, B & C kinase assay (ADP-Glo / HTRF KinEASE-TK); format: biochemical; conditions: ADP-Glo or HTRF KinEASE-TK kit, isoform not specified, read-out: IC50 (nM) Enzymatic assay
T1 construct: fused on or other part: Carna's Trk kinases are usually GST-tagged cytoplasmic domains
Protocol: ADP-Glo assay kit was purchased from Promega. poly (Glu, Tyr), Magnesium sulfate, Bovine serum albumin (BSA) and dimethylsulfoxide(DMSO) were purchased from Sigma-Aldrich. Tris-HCl buffer was purchased from BD Gentest. HTRF KinEASE-TK kit was purchased from cisbio. TRK A, B & C kinase was purchased from Carna bioscience.
Kinase assay was performed for Chemical Compounds 1-61 using two methods using luminescent ADP-Glo assay kit (Promega) and HTRF KinEASE-TK assay kit (cisbio). The luminescent ADP-Glo assay kit (Promega) measures ADP formed from a kinase reaction. ADP converted into ATP, which is then converted into light by Ultra-Glo luciferase. The HTRF KinEASE-TK assay kit (cisbio) measures tyrosine kinase activities using one substrate and a universal detection system.
ADP-Glo Assay Kit (Promega)
The protein kinase assay was performed for Chemical Compounds 1-61 at […] concentrations are 0.4 ng/ul of TrKA, 0.5 ng/ul of TrKB and 3 ng/ul of TrKC, respectively), 5 μL of 1 ug/ul stock solution of poly(glu, Tyr), 5 μL of compounds or assay buffer, 5 μL of ATP (125 μM stock solution).
The assay was started by incubating the reaction mixture in a 96-well plate at 30° C. for 1 hr. After the incubation, the assay was terminated by the addition of 25 […] Detection Reagent was added, and the 96-well plate was shaken and then incubated for additional 30 min at ambient temperature. The 96-well reaction plate was then read on an Enspire plate reader. The IC50 values were derived through a curve fitting using SigmaPlot.
HTRF KinEASE-TK Assay Kit (Cisbio)
The HTRF KinEASE-TK assay was performed for Chemical Compounds 1-61 in 384-well low volume microplate (Greiner). The HTRF KinEASE-TK assay format involves the two steps. The first step is kinase reaction step. This kinase reaction step was performed at RT (room temperature) in final volume of 10 ul according to the following assay reaction recipe: 10 ul of kinase mixture (Kinase (2 ul)+ATP (2 ul)+Substrate (2 ul)+Compound (4 ul)). Kinase final concentrations were 0.3 ng/ul of TRKA, 0.1 ng/ul of TRKB, 0.03 ng/ul of TRKC, respectively. ATP final concentrations were 14.7 uM (TRKA), 4.77 uM (TRKB), 25.6 uM (TRKC) respectively. TK-substrate final concentration was 0.3 ng/ul. The mixtures exposed to Dose response concentration (DRC) compound from 0 to 100 nM for 40 min. During the kinase reaction step, the kinase reaction was started by the addition of ATP. Kinase phosphorylates the substrate.
The second is detection step. 10 ul of detection reagents (5 ul Sa-XL 665 in EDTA+5 ul TK Antibody-Eu in EDTA) was added to kinase mixture. This step was performed at room temperature for 1 hr. The detection reagent detects phosphorylated substrates.
Finally 384-well reaction plate was then read on FlexStation 3 machine. The fluorescence was measured at 620 nm (Cryptate) and 665 nm (XL665). A ratio is calculated ([…]/620)×10^4 for each well. The IC50 value was derived through a curve fitting using GraphPad Prism. Table 1 below includes the results of the assays.

| Compound | IC50 [nM] |
| --- | --- |
| (E)-3-(5-((R)-2-(2,5-difluorophenyl)pyrrolidin-1-yl)pyrazolo[1,5-a]pyrimidin-3-yl)-1-((R)-3-hydroxypyrrolidin-1-yl)prop-2-en-1-one [Chemical Compound 59] | < 10 |
| O=C1CN(C(=O)/C=C/c2cnn3ccc(N4CCC[C@@H]4c4cc(F)ccc4F)nc23)CCN1 [Chemical Compound 51, (R,E)-4-(3-(5-(2-(2,5-difluorophenyl)pyrrolidin-1-yl)pyrazolo[1,5-a]pyrimidin-3-yl)acryloyl)piperazin-2-one] | < 10 |
| Fc1ccc(F)c([C@H]2CCCN2c2ccn3ncc(-c4nnc(-c5cc[nH]n5)s4)c3n2)c1 [Chemical Compound 20, (R)-2-(5-(2-(2,5-difluorophenyl)pyrrolidin-1-yl)pyrazolo[1,5-a]pyrimidin-3-yl)-5-(1H-pyrazol-3-yl)-1,3,4-thiadiazole] | > 100 |
| Fc1ccc(F)c([C@H]2CCCN2c2ccn3ncc(-c4nnc(N5CCNCC5)o4)c3n2)c1 [Chemical Compound 18, (R)-2-(5-(2-(2,5-difluorophenyl)pyrrolidin-1-yl)pyrazolo[1,5-a]pyrimidin-3-yl)-5-(piperazin-1-yl)-1,3,4-oxadiazole] | > 100 |
| Fc1ccc(F)c([C@H]2CCCN2c2ccn3ncc(-c4nnc(N5CCNCC5)s4)c3n2)c1 [Chemical Compound 22, (R)-2-(5-(2-(2,5-difluorophenyl)pyrrolidin-1-yl)pyrazolo[1,5-a]pyrimidin-3-yl)-5-(piperazin-1-yl)-1,3,4-thiadiazole] | < 10 |
| CC(C)(O)C1CN(C(=O)/C=C/c2cnn3ccc(N4CCC[C@@H]4c4cc(F)ccc4F)nc23)CCN1 (stereo partly drawn) [Chemical Compound 52, (E)-3-(5-((R)-2-(2,5-difluorophenyl)pyrrolidin-1-yl)pyrazolo[1,5-a]pyrimidin-3-yl)-1-(3-(2-hydroxypropan-2-yl)piperazin-1-yl)prop-2-en-1-one] | < 10 |
| Fc1ccc(F)c([C@H]2CCCN2c2ccn3ncc(-c4cn(C5CCCNC5)nn4)c3n2)c1 (stereo partly drawn) [Chemical Compound 34, 5-((R)-2-(2,5-difluorophenyl)pyrrolidin-1-yl)-3-(1-(piperidin-3-yl)-1H-1,2,3-triazol-4-yl)pyrazolo[1,5-a]pyrimidine] | < 10 |
| Fc1ccc(F)c([C@H]2CCCN2c2ccn3ncc(-c4nnc(C5CCNCC5)o4)c3n2)c1 [Chemical Compound 24, (R)-2-(5-(2-(2,5-difluorophenyl)pyrrolidin-1-yl)pyrazolo[1,5-a]pyrimidin-3-yl)-5-(piperidin-4-yl)-1,3,4-oxadiazole] | < 10 |
| Fc1ccc(F)c([C@H]2CCCN2c2ccn3ncc(-c4nnc(N5CCCNCC5)s4)c3n2)c1 [Chemical Compound 23, (R)-2-(1,4-diazepan-1-yl)-5-(5-(2-(2,5-difluorophenyl)pyrrolidin-1-yl)pyrazolo[1,5-a]pyrimidin-3-yl)-1,3,4-thiadiazole] | < 10 |
| (R,E)-3-(5-(2-(2,5-difluorophenyl)pyrrolidin-1-yl)pyrazolo[1,5-a]pyrimidin-3-yl)-1-(4-ethylpiperazin-1-yl)prop-2-en-1-one [Chemical Compound 54] | > 100 |

The next lines start with the values.

| IC50 [nM] | Compound |
| --- | --- |
| < 10 | O=C(Cn1cc(-c2cnn3ccc(N4CCC[C@@H]4c4cc(F)ccc4F)nc23)nn1)N1CCNCC1 [Chemical Compound 37, (R)-2-(4-(5-(2-(2,5-difluorophenyl)pyrrolidin-1-yl)pyrazolo[1,5-a]pyrimidin-3-yl)-1H-1,2,3-triazol-1-yl)-1-(piperazin-1-yl)ethan-1-one] |
| < 10 | Fc1ccc(F)c([C@H]2CCCN2c2ccn3ncc(-c4nnc(-c5cn[nH]c5)s4)c3n2)c1 [Chemical Compound 19, (R)-2-(5-(2-(2,5-difluorophenyl)pyrrolidin-1-yl)pyrazolo[1,5-a]pyrimidin-3-yl)-5-(1H-pyrazol-4-yl)-1,3,4-thiadiazole] |
| < 10 | CC(C)N1CCN(C(=O)/C=C/c2cnn3ccc(N4CCC[C@@H]4c4cc(F)ccc4F)nc23)CC1 [Chemical Compound 55, (R,E)-3-(5-(2-(2,5-difluorophenyl)pyrrolidin-1-yl)pyrazolo[1,5-a]pyrimidin-3-yl)-1-(4-isopropylpiperazin-1-yl)prop-2-en-1-one] |
| < 10 | CC1(O)CCN(C(=O)/C=C/c2cnn3ccc(N4CCC[C@@H]4c4cc(F)ccc4F)nc23)CC1 [Chemical Compound 58, (R,E)-3-(5-(2-(2,5-difluorophenyl)pyrrolidin-1-yl)pyrazolo[1,5-a]pyrimidin-3-yl)-1-(4-hydroxy-4-methylpiperidin-1-yl)prop-2-en-1-one] |
| < 10 | Fc1ccc(F)c([C@H]2CCCN2c2ccn3ncc(-c4cn(C5CCNCC5)nn4)c3n2)c1 [Chemical Compound 33, (R)-5-(2-(2,5-difluorophenyl)pyrrolidin-1-yl)-3-(1-(piperidin-4-yl)-1H-1,2,3-triazol-4-yl)pyrazolo[1,5-a]pyrimidine] |
| > 100 | O=C(Nc1nnc(-c2cnn3ccc(N4CCC[C@@H]4c4cc(F)ccc4F)nc23)s1)c1ccccc1 [Chemical Compound 21, (R)—N-(5-(5-(2-(2,5-difluorophenyl)pyrrolidin-1-yl)pyrazolo[1,5-a]pyrimidin-3-yl)-1,3,4-thiadiazol-2-yl)benzamide] |
| > 100 | O=C(/C=C/c1cnn2ccc(N3CCC[C@@H]3c3cc(F)ccc3F)nc12)N1CCCNCC1 [Chemical Compound 56, (R,E)-1-(1,4-diazepan-1-yl)-3-(5-(2-(2,5-difluorophenyl)pyrrolidin-1-yl)pyrazolo[1,5-a]pyrimidin-3-yl)prop-2-en-1-one] |
| < 10 | Fc1ccc(F)c([C@H]2CCCN2c2ccn3ncc(-c4cn(C5CCNC5)nn4)c3n2)c1 (stereo partly drawn) [Chemical Compound 35, 5-((R)-2-(2,5-difluorophenyl)pyrrolidin-1-yl)-3-(1-(pyrrolidin-3-yl)-1H-1,2,3-triazol-4-yl)pyrazolo[1,5-a]pyrimidine] |
